From article PMC8214221, “Sequence determinants in the cathelicidin LL-37 that promote inflammation via presentation of RNA to scavenger receptors” (The Journal of Biological Chemistry, 2021)
Residues, ends and D or L forms follow the SMILES beside them.

Assays:
[1] = tested on: normal human epidermal keratinocytes (NHEKs); test: LDH release cytotoxicity assay in keratinocytes; type: cell-based; settings: minimal concentration giving 50% LDH release by NHEKs
How it was run: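 Normal human epidermal keratinocytes were exposed to LL-34 parent and alanine-substituted peptides. Cytotoxicity was read as LDH release in fresh culture supernatants after treatment, using a commercial kit, and reported as the minimal concentration showing toxicity.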

[2] = tested on: S. aureus strain USA300 and SA112, GAS; test: Bacterial growth inhibition (OD600), Gram-positive strains; type: cell-based, Staphylococcus aureus; group A Streptococcus; settings: 0-50 µM overnight, OD 600, n = 3, S. aureus USA300, SA113 (SA112 in text)
Method: We further looked at mRNA abundance by quantitative RT-PCR (qRT-PCR) to evaluate gene expression for type 1 interferon IFNB1, chemokine CXCL10, and cytokines TSLP and IL6 in NHEKs treated with selected LL-34 parent, LL-34—F5A, I24A, F27A, and L31A—peptides either alone or in combination with U1 dsRNA for 18 h (Fig. 1, E–H).
Methicillin-resistant S. aureus USA300 and methicillin-sensitive S. aureus SA113 (American Type Culture Collection 35556) were cultured in 3% tryptic soy broth overnight at 37 °C with shaking at 250 rpm. GAS M49 strain NZ131 was cultured in Todd Hewitt broth supplemented with 1% yeast extract overnight at 37 °C without shaking. E. coli R1 strain RS218 was cultured in LB broth overnight at 37 °C with shaking at 250 rpm. MIC values were determined using a round-bottom 96-well microdilution method with RPMI cell culture media (as a source of Ca^2+ and Mg^2+) supplemented with tryptic soy broth, Todd Hewitt broth/yeast extract, or LB to facilitate growth of the respective bacterial strains. Overnight bacterial cultures were subcultured into fresh broth and grown to midlate log phase indicated by an absorbance at 600 nm value between 0.8 and 1.0 for each bacterial strain. The absorbance was then normalized to provide a concentration of 1 × 10^7 colony-forming units/ml in RPMI medium. The LL-34 parent and alanine scan mutants were serially diluted into the 96-well microtiter plates containing prewarmed RPMI bacterial growth medium. A 10 μl aliquot of the midlate log phase bacteria was inoculated into the 96-well microtiter plates that contained 95 μl of RPMI medium with or without the LL-34 peptide dilutions and incubated for 16 to 18 h at […] with shaking at 200 rpm. Inhibition of growth was determined by measuring the absorbance at 600 nm readings of each well using a microplate reader (Infinite M200 Pro; Tecan). The MIC of each bacterial strain was determined by the lowest peptide concentration that inhibited more than 80% bacterial growth.
(A) NHEKs and HDMECs (B) were treated with LL34- parent peptide and all the 34 alanine substituted peptides (Pep L1A-Pep R34A) and LL37 at 2 µM for 16 h. IL-6 protein secretion was assessed with ELISA (n=3) (C-F) LL34-Parent, LL34 F5A, LL34 I24A, LL34 F27A, and LL34 L31A peptides were incubated with S. aureus USA 300, S. aureus SA113, Group A Streptococcus (GAS) and E. coli at increasing concentrations (0-50 µM) overnight, and bacterial culture growth was assayed as absorbance at OD 600 (n=3).

Row | Structure (SMILES) | Minimal cytotoxic concentration in NHEK (LD50) [1] [µM] | Capacity to inhibit growth of Gram-positive bacteria [2]
1 | CC[C@H](C)[C@H](NC(=O)[C@H](CCCCN)NC(=O)[C@H](CCC(=O)O)NC(=O)[C@H](CCCCN)NC(=O)[C@H](CO)NC(=O)[C@H](CCCCN)NC(=O)[C@H](CCCNC(=N)N)NC(=O)[C@H](Cc1ccccc1)NC(=O)[C@H](Cc1ccccc1)NC(=O)[C@H](CC(=O)O)NC(=O)CNC(=O)[C@H](CC(C)C)NC(=O)[C@@H](N)CC(C)C)C(=O)NCC(=O)N[C@@H](CCCCN)C(=O)N[C@@H](CCC(=O)O)C(=O)N[C@@H](Cc1ccccc1)C(=O)N[C@@H](CCCCN)C(=O)N[C@@H](CCCNC(=N)N)C(=O)N[C@H](C(=O)N[C@H](C(=O)N[C@@H](CCC(N)=O)C(=O)N[C@@H](CCCNC(=N)N)C(=O)N[C@@H](C)C(=O)N[C@@H](CCCCN)C(=O)N[C@@H](CC(=O)O)C(=O)N[C@@H](Cc1ccccc1)C(=O)N[C@@H](CC(C)C)C(=O)N[C@@H](CCCNC(=N)N)C(=O)N[C@@H](CC(N)=O)C(=O)N[C@@H](CC(C)C)C(=O)N[C@H](C(=O)N1CCC[C@H]1C(=O)N[C@@H](CCCNC(=N)N)C(=O)O)C(C)C)C(C)C)[C@@H](C)CC [LL-34—I24A] (H-LLGDFFRKSKEKIGKEFKRIVQRAKDFLRNLVPR-OH) | 20 | increased capacity to inhibit growth of most of the tested Gram-positive bacteria
2 | CC[C@H](C)[C@H](NC(=O)[C@H](CCCCN)NC(=O)[C@H](CCC(=O)O)NC(=O)[C@H](CCCCN)NC(=O)[C@H](CO)NC(=O)[C@H](CCCCN)NC(=O)[C@H](CCCNC(=N)N)NC(=O)[C@H](Cc1ccccc1)NC(=O)[C@H](Cc1ccccc1)NC(=O)[C@H](CC(=O)O)NC(=O)CNC(=O)[C@H](CC(C)C)NC(=O)[C@@H](N)CC(C)C)C(=O)NCC(=O)N[C@@H](CCCCN)C(=O)N[C@@H](CCC(=O)O)C(=O)N[C@@H](Cc1ccccc1)C(=O)N[C@@H](CCCCN)C(=O)N[C@@H](CCCNC(=N)N)C(=O)N[C@H](C(=O)N[C@H](C(=O)N[C@@H](CCC(N)=O)C(=O)N[C@@H](CCCNC(=N)N)C(=O)N[C@H](C(=O)N[C@@H](CCCCN)C(=O)N[C@@H](CC(=O)O)C(=O)N[C@@H](Cc1ccccc1)C(=O)N[C@@H](CC(C)C)C(=O)N[C@@H](CCCNC(=N)N)C(=O)N[C@@H](CC(N)=O)C(=O)N[C@@H](C)C(=O)N[C@H](C(=O)N1CCC[C@H]1C(=O)N[C@@H](CCCNC(=N)N)C(=O)O)C(C)C)[C@@H](C)CC)C(C)C)[C@@H](C)CC [LL-34—L31A] (H-LLGDFFRKSKEKIGKEFKRIVQRIKDFLRNAVPR-OH) | 10 | increased capacity to inhibit growth of most of the tested Gram-positive bacteria
